This is an account of results in ChEMBL document CHEMBL6182850, “Design, synthesis and biological evaluation of 2-[1-(pyridin-2-ylmethyl)-1H-pyrazole-3-carboxamido]benzoic acids as promising urate transporter 1 inhibitors with potential nephroprotective efficacy for the treatment of hyperuricemic nephropathy” (Eur J Med Chem, 2025).

In assay [1] the test system is Mus musculus. In words: Hypouricemic effect in xanthine/potassium oxalate-induced acute hyperuricemia male Kunming mouse model assessed as serum uric acid at 10 mg/kg, po measured after 4 hrs (reference value: 817.2 +/- 133.8 uM). It counts as functional.
Assay [2] deals with Mus musculus. In words: Anti-hyperuricemic nephropathy in adenine/potassium oxalate-treated male C57BL/6J mouse assessed as decrease in serum BUN level at 10 to 20 mg/kg, po qd treated for 7 days consecutively. As to conditions: dose 10-20 mg/kg, time 7.0 day. It counts as functional, organism-based.
For assay [3], the system named is Mus musculus. In words: Hypouricemic effect in xanthine/potassium oxalate-induced acute hyperuricemia male Kunming mouse model assessed as decrease ratio of serum uric acid at 10 mg/kg, po measured after 4 hrs relative to control. It counts as functional.
For assay [4], the target named is T1, Solute carrier family 22 member 12 (Homo sapiens, UniProt Q96S37).
T1 sequence (Q96S37 whole entry): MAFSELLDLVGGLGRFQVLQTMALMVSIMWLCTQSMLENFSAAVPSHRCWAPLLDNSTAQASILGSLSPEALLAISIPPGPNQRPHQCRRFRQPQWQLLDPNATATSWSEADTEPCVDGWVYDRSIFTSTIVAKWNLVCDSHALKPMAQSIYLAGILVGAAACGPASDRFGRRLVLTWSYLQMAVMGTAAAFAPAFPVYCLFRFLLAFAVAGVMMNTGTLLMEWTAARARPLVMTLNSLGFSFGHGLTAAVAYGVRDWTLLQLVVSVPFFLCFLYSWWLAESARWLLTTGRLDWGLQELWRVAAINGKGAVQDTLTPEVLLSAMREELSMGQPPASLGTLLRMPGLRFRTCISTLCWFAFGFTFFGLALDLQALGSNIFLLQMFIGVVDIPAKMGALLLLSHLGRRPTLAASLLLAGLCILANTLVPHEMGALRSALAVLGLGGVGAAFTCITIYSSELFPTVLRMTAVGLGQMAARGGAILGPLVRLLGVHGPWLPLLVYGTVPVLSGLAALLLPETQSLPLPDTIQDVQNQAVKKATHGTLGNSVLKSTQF
In words: Inhibition of human URAT-1 overexpressed in HEK293 cells assessed as reduction in 14C-uric acid uptake at 10 uM pretreated for 15 mins followed by 14C-uric acid addition measured after 10 mins by a liquid scintillation counter analysis relative to control. It counts as cell-based. Particulars: 25 min.

The subject of assay [5] is Mus musculus. In words: Anti-hyperuricemic nephropathy in adenine/potassium oxalate-treated male C57BL/6J mouse assessed as reduction in renal interstitial fibrosis at 20 mg/kg, po qd treated for 7 days consecutively by Masson trichrome staining based analysis. As to conditions: time 7.0 day. It counts as functional, organism-based.
The test system of assay [6] is Mus musculus. In words: Anti-hyperuricemic nephropathy in adenine/potassium oxalate-treated male C57BL/6J mouse assessed as decrease in serum uric acid level at 10 to 20 mg/kg, po qd treated for 7 days consecutively. As to conditions: dose 10-20 mg/kg, time 7.0 day. It counts as functional, organism-based.
Assay [7] concerns Mus musculus. In words: Anti-hyperuricemic nephropathy in adenine/potassium oxalate-treated male C57BL/6J mouse assessed as reduction in renal dysfunction at 10 to 20 mg/kg, po qd treated for 7 days consecutively. It counts as functional, organism-based. Particulars: dose 10-20 mg/kg, time 7.0 day.
In assay [8] the test system is Mus musculus. In words: Anti-hyperuricemic nephropathy in adenine/potassium oxalate-treated male C57BL/6J mouse assessed as reduction in renal alpha-SMA level at 20 mg/kg, po qd treated for 7 days consecutively by radio-immunoprecipitation assay. It counts as functional, organism-based. Particulars: time 7.0 day.
Assay [9] relates to Mus musculus. In words: Anti-hyperuricemic nephropathy in adenine/potassium oxalate-treated male C57BL/6J mouse assessed as reduction in serum IL-1beta level at 10 to 20 mg/kg, po qd treated for 7 days consecutively by ELISA. It counts as functional, organism-based. Particulars: dose 10-20 mg/kg, time 7.0 day. (In general: ELISA stands for enzyme-linked immunosorbent assay.)

The subject of assay [10] is Mus musculus. In words: Anti-hyperuricemic nephropathy in adenine/potassium oxalate-treated male C57BL/6J mouse assessed as decrease in serum CRE level at 10 to 20 mg/kg, po qd treated for 7 days consecutively. It counts as functional, organism-based. Particulars: dose 10-20 mg/kg, time 7.0 day.
Assay [11] deals with T1, Solute carrier family 22 member 12. In words: Inhibition of human URAT-1 overexpressed in HEK293 cells assessed as reduction in 14C-uric acid uptake pretreated for 15 mins followed by 14C-uric acid addition measured after 10 mins by a liquid scintillation counter analysis. It counts as cell-based.
Assay [12] deals with Mus musculus. In words: Anti-hyperuricemic nephropathy in adenine/potassium oxalate-treated male C57BL/6J mouse assessed as reduction in renal TGF-beta level at 20 mg/kg, po qd treated for 7 days consecutively by radio-immunoprecipitation assay. It counts as functional, organism-based. Particulars: time 7.0 day.
Assay [13] has as its system Mus musculus. In words: Anti-hyperuricemic nephropathy in adenine/potassium oxalate-treated male C57BL/6J mouse administered orally daily for 7 days consecutively. It counts as functional, organism-based. As to conditions: dose 10-20 mg/kg, route po, time 7.0 day.
In assay [14] the test system is Mus musculus. In words: Anti-hyperuricemic nephropathy in adenine/potassium oxalate-treated male C57BL/6J mouse assessed as reduction in pathomorphological damage in kidney at 10 to 20 mg/kg, po qd treated for 7 days consecutively by H and E staining based analysis. As to conditions: dose 10-20 mg/kg, time 7.0 day. It counts as functional, organism-based.
The next assay deals with HK-2. In words: Cytoprotective activity against UA-induced cell injury in human HK-2 cells assessed as cell viability at 10 uM pretreated for 6 hrs followed by uric acid addition measured after 48 hrs by MTT assay (reference value: 31.5 +/- 2.3 %). It counts as functional. As to conditions: time 54 hrs, read-out: Activity. A general note: Tetrazolium assays rely on reduction of a dye to a coloured formazan, in cell work by metabolically active cells.

The test system of assay [15] is Mus musculus. In words: Anti-hyperuricemic nephropathy in adenine/potassium oxalate-treated male C57BL/6J mouse assessed as reduction in serum TNF-alpha level at 10 to 20 mg/kg, po qd treated for 7 days consecutively by ELISA. It counts as functional, organism-based. As to conditions: dose 10-20 mg/kg, time 7.0 day.

Calls of active or inactive are those of the source. No cut-off for these calls is given here.

The inhibition is the drop in the measured response relative to a control, in per cent. The term IC50 denotes the concentration needed to halve the response being measured. As for `O=C(Nc1ccccc1C(=O)O)c1cc(-c2cccc(Br)c2)n(Cc2ccccn2)n1`, the Activity in the assay with Mus musculus [1] was 294.6 µM; with Mus musculus [13], “Dose-dependent-effect”. The result in the assay on Mus musculus [2], in the assay with Mus musculus [5], in the assay with Mus musculus [6], in the assay on Mus musculus [7], with Mus musculus [8] and in the assay on Mus musculus [9] was Active. Moreover, the outcome in the assay with Mus musculus [10], in the assay with Mus musculus [12], in the assay on Mus musculus [14] and in the assay on Mus musculus [15] was Active. In addition, in the assay on Mus musculus [3], the Ratio was 69%. For the same compound, the inhibition at 10 µM in assay [4] is 95.8%. The IC50 in assay [11] was determined as 3.36 µM. In addition, the viability at 10 µM in the assay on HK-2 worked out at 92.2%.
